Test results: US10344037B2, “Use of the FL-one hundred eighteen core chemical structure platform to generate FL-one hundred eighteen derivatives for treatment of human disease” (priority 2014, dated 2019)
Where two headings read alike, the source gives them in different places.

Experiments:
[1] = tested on: DU145 prostate cancer cells; assay: Cell growth inhibition, cell counting after 72 h; type: cell-based, human
Text: (§1) Each dot is the mean±SD derived from 3 independent assays.
(§2) Irinotecan and topotecan are the only two analogs derived from direct modification of camptothecin (CPT) that are approved by the FDA for cancer treatment in clinical practice. […] In this regard, we obtain one DU145 parental prostate cancer cell line and two DU145-derived sub-lines with Top1 mutations (DU145-RC0.1, DU145-RC1).

[2] = tested on: RC0.1 (DU145-RC0.1) cells; assay: Cell growth inhibition, DU145 sub-line with Top1 mutation; type: cell-based, human
Text: as §1, §2

RC1 (DU145-RC1) cells [3] = assay: as above; type: cell-based, human
Text: as §1, §2

[4] = tested on: DU145 prostate cancer cells; conditions: DU-145; adopted from Urasaki Y et al.; cited from earlier work
[5] = tested on: RC0.1 (DU145-RC0.1) cells; conditions: adopted from Urasaki Y et al.; cited from earlier work
RC1 (DU145-RC1) cells [6] = conditions: adopted from Urasaki Y et al.; cited from earlier work
[7] = tested on: HCT116 colon cancer cells; assay: cells; type: cell-based, human; conditions: for RP: IC50 of topotecan divided by IC50 of the drug
Description: (§3) Cancer cell viability and growth are determined by MTT assay. […] MTT is used as a colorimetric substrate for measuring cell viability and growth. When cell growth is inhibited, there is an alteration of cellular redox activity, and thus rendering cells unable to reduce the MTT dye. Cells are seeded in 96 well plates overnight and then treated with or without a compound/drug in the presence or absence of an protein molecule inhibitor (e.g. ABCG2 inhibitor ko143) for 48-72 hours, MTT is added to a final concentration 0.5 mg/ml. Cells are continuously incubated in a 5% CO2 incubator at 37° C. for 4 h with MTT and then lysed with a cell lysis buffer (20% SDS, 50% N,N-dimethylformamide, pH 4.7), 100 μl per well, for 4 h in the incubator. Subsequently, cell absorbance in each well is measured at 570 nm with an Ultra Microplate Reader (Bio-Tek Instruments). Results are reported as the mean±SD from 3-5 independent assays at each point. […] After 72 hours, media is removed and cells are harvested using 0.5 ml of 0.25% Trypsin-EDTA. Cells are counted and viability is analyzed on a Vi-CELL XR Cell Viability Analyzer (Beckman Coulter).

HCT116-NS6 cells = assay: cells; type: cell-based, human; conditions: for RP: IC50 of topotecan divided by IC50 of the drug
Description: as §3

HCT116-C4 cells = assay: cells; type: cell-based, human; conditions: for RP: IC50 of topotecan divided by IC50 of the drug
Description: Cancer cell viability and growth are determined by MTT assay. […] MTT is used as a colorimetric substrate for measuring cell viability and growth. When cell growth is inhibited, there is an alteration of cellular redox activity, and thus rendering cells unable to reduce the MTT dye. Cells are seeded in 96 well plates overnight and then treated with or without a compound/drug in the presence or absence of an protein molecule inhibitor (e.g. ABCG2 inhibitor ko143) for 48-72 hours, MTT is added to a final concentration 0.5 mg/ml. Cells are continuously incubated in a 5% CO2 incubator at 37° C. for 4 h with MTT and then lysed with a cell lysis buffer (20% SDS, 50% N,N-dimethylformamide, pH 4.7), 100 μl per well, for 4 h in the incubator. Subsequently, cell absorbance in each well is measured at 570 nm with an Ultra Microplate Reader (Bio-Tek Instruments). Results are reported as the mean±SD from 3-5 independent assays at each point. Alternatively, for FIG. 16, FIG. 17 and FIG. 19, cells are plated at a density of 300,000 cells/well in 6-well plates; cells are allowed to attach on the plate overnight. […] After 72 hours, media is removed and cells are harvested using 0.5 ml of 0.25% Trypsin-EDTA. Cells are counted and viability is analyzed on a Vi-CELL XR Cell Viability Analyzer (Beckman Coulter).

HCT116-A2 cells = assay: cells; type: cell-based, human; conditions: for RP: IC50 of topotecan divided by IC50 of the drug
Description: as §3

HCT116-G7 cells = assay: cells; type: cell-based, human; conditions: for RP: IC50 of topotecan divided by IC50 of the drug
Description: as §3

HCT116-C8 cells = assay: cells; type: cell-based, human; conditions: for RP: IC50 of topotecan divided by IC50 of the drug
Description: as §3

ABCG2 in HCT116-A2 cells [8] = type: cell-based, human
Description: Cell numbers are then counted at each drug concentration used. […] Cell numbers at each dot is the mean±SD derived from 3 independent assays. Data are plotted graphically and EC50 values are calculated using GraphPad Prism 6.0.
ABCG2 positive HCT116-derived colon cancer cells (HCT116-A2) grown at sub-confluence are treated with a series of concentrations of topotecan in triplicate for 72 hours in the presence or absence of Ko143 at 1 μM concentrations as shown. Cell numbers are then counted at each topotecan concentration used. […] Cell numbers at each dot is the mean±SD derived from 3 independent assays. Data are plotted graphically and EC50 values and R-values are calculated using GraphPad Prism 6.0.
Clinically, development of resistance to irinotecan and topotecan occurs commonly during treatment, often involving the upregulation of ABCG2. By increasing the rate of drug export, ABCG2 decreases the amount of SN-38, irinotecan or topotecan that accumulates intracellularly, thereby protecting cancer cells from the cytotoxic effects of these chemotherapeutic drugs.

ABCG2 in HCT116-A2 cells [9] = assay: Growth inhibition after ABCG2 shRNA silencing; type: cell-based, human; conditions: 72 hours
Description: Actin is internal control. B and C. […] Cells at sub-confluence are infected with lentiviral particles containing nonsense shRNA (ns), or AGCG2-specific shRNA (sh1, sh2) to silence ABCG2 expression in the cells. […] Viability for each dose was determined using a ViCELL XR cell viability analyzer and normalized to that of DMSO control. Error bars=SEM, n=3 independent experiments. Data are plotted graphically and EC50 values are calculated using GraphPad Prism 6.0.

ABCG2 in HEK293 cells [10] = assay: Intracellular drug concentration by flow cytometry; type: cell-based, human
Description: Cells are then incubated for 3 h in 37 C and 5% CO2, with manual agitation every 30 min. After incubation, cells are pelleted and supernatant is removed. Cell pellets are washed twice with ice-cold PBS, and then suspended in 300 uL ice-cold PBS, and placed on ice until analysis. Cells are analyzed on a LSR II flow cytometer (BD Biosciences, San Jose Calif.) with a 355 nm laser and a 540 nm band-pass filter to detect emission. Median fluorescence intensity (MFI) of each drug+/−Ko143 is compared.

HCT-8 cells = assay: Colony formation after 2 h or 6 h drug treatment; type: cell-based, human
Description: Subconfluent SW620, HCT-8, and HCT-116 cells were lysed and analyzed for the expression of MDR1 and ABCG2 using western blots (WB). Actin is the internal control. […] Cell growth/viability was then analyzed by MTT assays. Each time point in the individual curve is the mean±SD from 3 to 5 independent assays. […] Drugs were then washed out and cells were allowed to grow in new medium without drugs for 2 weeks. Cell colonies were stained with crystal violet solution; images were digitally taken. Triplicate results are shown.
Cell growth is then measured and the data are plotted as percentage of growth inhibition (no drug treatment was set at 0%). […] C. […] Representative cancer cell images were taken with a digital camera under phase-contrast microscope.

in vivo = conditions: SCID, mouse, in vivo, ip
Description: Individual tumor curves derived from individual mice are shown. A. Mice with FaDu head-&-neck tumor xenografts were first treated with irinotecan at its maximum tolerated dose (MTD, 100 mg/kg, IP) weekly for 4-5 times (black arrow). […] B. Mice with FaDu tumor xenografts were first treated with topotecan at its MTD (4 mg/kg, IP) via daily×5 schedules for 4 cycles (each black arrow is one cycle). […] C. Mice with SW620 CRC xenografts were first treated with irinotecan at its MTD (IP, weekly×4, black arrow). […] D. Mice with SW620 xenograft tumors were first treated with topotecan at its MTD.

ABCG2 in HEK293 cells [11] = tested on: ABCG2 in HEK293 cells
survivin = assay: Western blot for survivin expression in FaDu cells; type: cell-based, human; conditions: 24 hours
[12] = tested on: human umbilical vein endothelial cells (HUVECS); assay: Cell growth and viability, MTT; type: cell-based; conditions: 72 hours
cancer cells = assay: Cell growth and viability, MTT; type: cell-based, human; conditions: 72 hours
Description: Actin is an internal control for equal protein loading. […] Subconfluent cancer cells as shown are treated with a series of concentrations of crolibulin as shown (0-100 μM) for 72 hours. Cell growth and viability are determined via MTT assay. Each curve is the mean±SD from 4 independent assays.
Crolibulin is an anticancer drug that targets endothelial cells of the cancer vasculature system. Therefore, crolibulin is considered as a vascular disrupt agent (VDA).

[13] = DU-145, IC50 of topotecan divided by IC50 of the drug

CC[C@@]1(O)C(=O)OCc2c1cc1n(c2=O)Cc2cc3ccccc3nc2-1 [CPT, camptothecin]
RP (relative potency) [1, 13]: 3.17
RP (relative potency) ([2]; RC0.1, IC50 of topotecan divided by IC50 of the drug): 0.97
RP (relative potency) (RC1 (DU145-RC1) cells [3]; RC1, IC50 of topotecan divided by IC50 of the drug): 2.69
IC50 [4]: 0.06 µM
IC50 [5]: 63.3 µM
IC50 (RC1 (DU145-RC1) cells [6]): 21.7 µM

CCc1c2c(nc3ccc(O)cc13)-c1cc3c(c(=O)n1C2)COC(=O)[C@]3(O)CC [SN-38]
RP (relative potency) [1]: 4.75
RP (relative potency) [2]: 5.24
RP (relative potency) (RC1 (DU145-RC1) cells [3]): 13.2
IC50 [7]: 0.000192 µM
RP [7]: 2.474
IC50 (HCT116-NS6 cells): 0.00112 µM
RP (HCT116-NS6 cells): 5.055
IC50 (HCT116-C4 cells): 0.0257 µM
RP (HCT116-C4 cells): 3.337
IC50 (HCT116-A2 cells): 0.0434 µM
RP (HCT116-A2 cells): 2.499
IC50 (HCT116-G7 cells): 0.00477 µM
RP (HCT116-G7 cells): 4.048
IC50 (HCT116-C8 cells): 0.00847 µM
RP (HCT116-C8 cells): 44.69
effect of ABCG2 inhibitor Ko143 on potency (ABCG2 in HCT116-A2 cells [8]; HCT116-A2 cells, 72 hours, Ko143 1 μM): Ko143 restores potency to SN-38
effect of silencing of ABCG2 on cell growth inhibition (ABCG2 in HCT116-A2 cells [9]): significantly sensitizes SN-38 to inhibit cell growth
IC50 [4]: 0.04 µM
IC50 [5]: 11.7 µM
IC50 (RC1 (DU145-RC1) cells [6]): 4.43 µM

CC[C@@]1(O)C(=O)OCc2c1cc1n(c2=O)Cc2cc3c(CN(C)C)c(O)ccc3nc2-1 [Topotecan, topotecan]
RP (relative potency) [1, 13]: 1
RP (relative potency) [2]: 1
RP (relative potency) (RC1 (DU145-RC1) cells [3]): 1
IC50 ([7]; Homo sapiens, HCT-116): 0.000747 µM
RP [7]: 1
IC50 (HCT116-NS6 cells; Homo sapiens): 0.00564 µM
RP (HCT116-NS6 cells): 1
IC50 (HCT116-C4 cells; Homo sapiens): 0.0858 µM
RP (HCT116-C4 cells): 1
IC50 (HCT116-A2 cells; Homo sapiens): 0.108 µM
RP (HCT116-A2 cells): 1
IC50 (HCT116-G7 cells; Homo sapiens): 0.0193 µM
RP (HCT116-G7 cells): 1
IC50 (HCT116-C8 cells; Homo sapiens): 0.379 µM
RP (HCT116-C8 cells): 1
effect of ABCG2 inhibitor Ko143 on potency (ABCG2 in HCT116-A2 cells [8]): ABCG2 is also a topotecan resistance factor
effect of ABCG2 overexpression on intracellular concentration (ABCG2 in HEK293 cells [10]): decreases intracellular concentration
colony formation inhibition, 6 hours versus 2 hours of treatment (HCT-8 cells): significantly better colony formation inhibition
MTD (in vivo): 4 mg/kg
IC50 [4]: 0.19 µM
IC50 [5]: 61.2 µM
effect of ABCG2 overexpression on IC50 for inhibition of cell growth (ABCG2 in HEK293 cells [11]): significantly increases IC50
IC50 (RC1 (DU145-RC1) cells [6]): 58.3 µM

COc1cc([C@H]2C(C#N)=C(N)Oc3c2ccc(N)c3N)cc(Br)c1OC [crolibulin, reference compound]
survivin expression (survivin): strongly induce survivin expression
sensitivity of HUVEC cells [12]: sensitive to crolibulin inhibition
sensitivity of cancer cells (cancer cells): resistant to crolibulin inhibition
